According to patent EP0409410B1, “Indenoindole compounds” (UNIVERSITY OF BATH, priority 1989, dated 1991):

How the values were obtained:
[1] = system: ascorbate/Fe²⁺-dependent lipid peroxidation; assay: Ascorbate/Fe²⁺-dependent lipid peroxidation (2-thiobarbituric acid-reactive material); type: biochemical; details: concentration required to inhibit lipid peroxidation by 50%; 200 µg/ml soy bean phospholipid, 10 µM iron, 100 µM ascorbic acid, 0.1 M KPi pH 7.4, room temperature, 30 min
Excerpt: (§1) The most remarkable feature of the compounds of the invention is their efficacy as free-radical scavengers or antioxidants. An assay system measuring the concentration of the compounds of formulas (IA) and (IB) required to inhibit lipid peroxidation by 50% (IC₅₀) was used. Other assays described below are the red blood cell fragility test used for measuring membrane stabilisation by indenoindoles (Table 2), and protection by indenoindoles against cytotoxicity of N-methyl-N¹-nitro-N-nitrosoguanidine (MNNG) in rat hepatocytes (Table 3). MNNG is a highly cytotoxic agent, the mechanism of action of which may involve a radical-mediated membrane destabilization.
For the ferrous/ascorbate lipid peroxidation system, 6.25 ml of 0.1 M potassium phosphate buffer (KPi), pH 7.4, was added to 12.5 mg dried soy bean phospholipids. After flushing with argon for 2 min, the suspension was sealed with five layers of Parafilm and sonicated until the suspension was translucent. The final reaction mixture was composed of 200 µg/ml phospholipid, 10 µM FeNH₄ (SO₄)₂ or Fe(NH₄)₂(SO₄)₂, and 100 µM ascorbic acid in 0.1 M KPi (pH 7.4), and the antioxidant to be tested in acetone or DMSO. The volume of vehicle never exceeded 1% of the total volume. The reaction was initiated by the addition of ascorbic acid plus iron. The reaction was continued at room temperature in a shaking water bath for 30 min and then stopped by the addition of […] of 0.5 M butylated hydroxytoluene in DMSO. The above procedure and the subsequent determination of 2-thiobarbituric acid-reactive material is described in: Shertzer, H.G. et al, Biochem. Pharmacol. 37, 333 (1988). […]

rat hepatocytes = assay: Protection against cytotoxic effects of MNNG in hepatocytes (trypan blue exclusion); type: cell-based, male Sprague-Dawley rats; details: Hepatocyte, concentration of compound required to extend by 1 hour the time needed for MNNG (0.5 mM) to kill 50 % of the viable cells, read-out: IC₅₀
Excerpt: as §1
The protective effects of indenoindoles on MNNG-induced cytotoxicity was assayed with rat hepatocytes. Hepatocytes were prepared from male Sprague-Dawley rats by collagenase treatment as originally described by Zahlten and Stratman (Zahlten, R.N. and Stratman, F.W., Arch. Biochem. Biophys. 163, 600 (1988)), as modified by Reitman et al (Reitman, F.A., Shertzer, H.G. and Berger, M.L., Biochem. Pharmacol. 37,3183 (1988)). In order to improve viability, cells were centrifuged through 0.508 g/ml Percoll (Pharmacia AB, Uppsala, Sweden) in 137 mM NaCl, 8.1 mM Na₂HPO₄ and 1.5 mM KH₂PO₄ (pH 7.4). Putative protecting agents were added to the cells as solutions in DMSO, with the final concentration of DMSO never exceeding 5 µl/ml of cell suspension. MNNG was added to a concentration of 0.5 mM as a solution in ethanol, giving a final concentration of ethanol of 1%; ethanol alone was by itself without effect. Viability was determined as the percentage of cells that excluded 0.2 % trypan blue. Values are the concentration of compound required to extend by 1 hour the time needed for MNNG to kill 50 % of the viable cells.

red blood cells = assay: Red blood cell fragility test (membrane stabilization, protection from osmolysis); type: cell-based, Rats; details: red blood cell fragility protective index value: linear regression slope, percentage protection against osmolysis per µM protecting agent; rat blood, absorbance at 656 nm
Excerpt: as §1
The membrane stabilization effect of indenoindoles was assayed by the red blood cell fragility test. Rats were anesthesized With 65 mg pentobarbital per kg body weight by i.p. injection. Blood samples were removed into a heparinized syringe from the left ventricle and diluted 20-fold with buffer containing 140 mM NaCl, 10 mM sodium citrate and 5 mM glucose (pH 7.4) at 0°C. Diluted blood was kept on ice. A 0.75 ml aliquot of blood was added to a 4 ml cuvette containing 10 µl DMSO or 10 µl of the antioxidant dissolved in DMSO vehicle. After 1 min of gentle swirling, 0.75 ml of 0.9 % NaCl or H₂O were added to the cuvette by forceful pipetting, and the absorbance at 656 nm was recorded with a Beckman DU-70 spectrophotometer. When H₂O was added in the absence of a stabilizing agent, absorbance decreased wtihin 15 sec to 0.8. Addition of NaCl instead of H₂O gave a time-independent absorbance of 2.2. In the presence of increasing concentrations of stabilizing chemicals, the absorbance decrease observed after the addition of water was diminished. The % protection from osmolysis was obtained from the equation [E(2.2- 0.8) - A/2.2-0.8)] x 100% [formula] , where A=2.2 minus the absor bance decrease when water is added in the presence of a known concentration of chemical. The % protection is then plotted against several concentrations of the chemical being treated. The red blood cell fragility protective index value (RBC-PIV) is the linear regression slope of this plot, expressed as the percentage protection against osmolysis per µM protecting agent. […]

## Cc1cc2c(c(C)c1O)C[C@@H]1c3ccccc3N[C@H]21 (relative stereo) [2-Hydroxy-1,3-dimethyl-THII, cis-4b,5,9b,10-Tetrahydro-2-hydroxy-1,3-dimethylindeno[1,2-b]indole]
[1]
  pIC₅₀: 7.9

## Cc1ccc2c(c1)[C@@]1(C)Cc3ccccc3[C@@]1(C)N2C (relative stereo) [4b,5,8,9b-Tetramethyl-THII, cis-4b,5,9b,10-tetrahydro-4b,5,8,9b-tetramethylindeno[1,2-b]indole]
[1]
  pIC₅₀: 6.8

## Fc1ccc2c(c1)[C@H]1Cc3ccccc3[C@H]1N2 (relative stereo) [8-Fluoro-THII, cis-4b,5,9b,10-Tetrahydro-8-fluoroindeno[1,2-b]indole]
[1]
  pIC₅₀: 7.5

## CC(C)c1ccc2c(c1)[C@@]1(C)Cc3ccccc3[C@@]1(C)N2 (relative stereo) [8-Isopropyl-4b,9b-dimethyl, cis-4b,5,9b,10-Tetrahydro-4b,9b-dimethyl-8-isopropylindeno[1,2-b]indole]
[1]
  pIC₅₀: 7.7

## CC1(C)c2ccccc2[C@H]2Nc3ccccc3[C@H]21 (relative stereo) [10,10-Dimethyl-THII, cis-4b,5,9b,10-Tetrahydro-10,10-dimethylindeno [1,2-b] indole]
[1]
  pIC₅₀: 6.9

## CC12Cc3ccccc3C1Nc1ccccc12 (stereo not drawn) [9b-Methyl-THII, cis-4b,5,9b,10-Tetrahydro-9b-methylindeno [1.2-b]-indole]
[1]
  pIC₅₀: 7.0

## CN1c2ccccc2[C@H]2Cc3ccccc3[C@H]21 (relative stereo) [5-Methyl-THII, cis-4b,5,9b,10-Tetrahydro-5-methylindeno[1,2-b]indole]
[1]
  pIC₅₀: 6.1
Rat hepatocytes
  IC50: 2200 nM
Red blood cells
  RBC-PIV: 0.64 %/µM

## CC(=O)Oc1c(C)c(C)c2c(c1C)CCC(C)(CCCC(C)CCCC(C)CCCC(C)C)O2 (stereo not drawn) [α-Tocopheryl-acetate, reference compound]
Rat hepatocytes
  IC50: 161000 nM

## COc1ccc2c(c1)[C@H]1Cc3ccccc3[C@H]1N2 (relative stereo) [8-Methoxy-THII, cis-4b,5,9b,10-Tetrahydro-8-methoxyindeno[1,2-b]indole]
Red blood cells
  RBC-PIV: 0.21 %/µM

## Cc1c(C)c2c(c(C)c1O)CCC(C)(CCCC(C)CCCC(C)CCCC(C)C)O2 (stereo not drawn) [α-Tocopherol (Vitamin E), α-Tocopherol, reference compound]
[1]
  pIC₅₀: 5.0
Red blood cells
  RBC-PIV: 0.10 %/µM

## CC12Nc3ccccc3C1Cc1ccccc12 (stereo not drawn) [4b-Methyl-THII, cis-4b,5,9b,10-Tetrahydro-4b-methylindeno[1,2-b]inole]
[1]
  pIC₅₀: 7.1

## Cc1cc(C)c2c(c1)[C@@]1(C)Cc3ccccc3[C@@]1(C)N2 (relative stereo) [4b,6,8,9b-Tetramethyl-THII, cis-4b,5,9b,10-Tetrahydro-4b,6,8,9b-tetramethylindeno[1,2-b]indole]
[1]
  pIC₅₀: 7.4

## CC(C)c1ccc2c(c1)[C@H]1Cc3ccccc3[C@H]1N2 (relative stereo) [8-Isopropyl-THII, cis-4b,5,9b,10-Tetrahydro-8-iso-propylindeno[1,2-b]indole]
[1]
  pIC₅₀: 7.3

## CC(C)c1ccc2c(c1)[C@H]1Cc3ccccc3[C@@]1(C)N2 (relative stereo) [8-Isopropyl-4b-methyl-THII, cis-4b,5,9b,10-Tetrahydro-4b-methyl-8-isopropylindeno-[1,2-b]indole]
[1]
  pIC₅₀: 7.7

## c1ccc2c(c1)C[C@@H]1c3ccccc3N[C@H]21 (relative stereo) [THII, cis-4b,5,9b,10-Tetrahydroindeno[1,2-b]indole]
[1]
  pIC₅₀: 6.9
Rat hepatocytes
  IC50: 2200 nM
Red blood cells
  RBC-PIV: 0.41 %/µM

## CCN(CC)c1ccc2c(c1)C[C@@H]1c3ccccc3N[C@H]21 (relative stereo) [2-Diethylamino-THII, cis-4b,5,9b,10-Tetrahydro-2-(N,N-Diethylamino)-indeno[1,2-b]indole]
[1]
  pIC₅₀: 7.2

## CC(C)c1ccc2c(c1)[C@@H]1c3ccccc3C[C@@H]1N2 (relative stereo) [9-Isopropyl-iso-THII, cis-5,5a,6,10b-Tetrahydro-9-isopropylindeno[2,1-b]indole]
[1]
  pIC₅₀: 7.4

## CN1c2ccccc2[C@H]2c3ccccc3C[C@H]21 [6-Methyl-iso-THII, cis-5,5a,6,10b-Tetrahydro-methylindeno[2.1-b]indole]
[1]
  pIC₅₀: 6.1

## Cc1ccc2c(c1)[C@@]1(C)Cc3ccccc3[C@@]1(C)N2 (relative stereo) [4b,8,9b-Trimethyl-THII, cis 4b,5,9b,10-Tetrahydro-4b,8,9b-trimethylindeno[1,2-b]indole]
[1]
  pIC₅₀: 7.6

## COc1cc(C)c2c(c1)[C@H]1Cc3ccccc3[C@H]1N2 (relative stereo) [8-Methoxy-6-methyl-THII, cis-4b,5,9b,10-Tetrahydro-8-methoxy 6-methylindeno[1,2-b]indole]
[1]
  pIC₅₀: 8.0

## CC12Cc3ccccc3C1(C)Nc1ccccc12 (stereo not drawn) [4b,9b-Dimethyl-THII, cis-4b,5,9b,10-Tetrahydro-4b,9b-dimethylindenol[1.2-b]indole]
[1]
  pIC₅₀: 7.2

## Cc1ccc2c(c1)C1Cc3ccccc3C1N2C (stereo not drawn) [5,8-Dimethyl-THII, cis-4b,5,9b,10-Tetrahydro-5,8-dimethylindenol[1,2-b]indole]
[1]
  pIC₅₀: 6.4

## COc1ccc2c(c1)C1Cc3ccccc3C1N2C (stereo not drawn) [8-Methoxy-5-methyl-THII, cis-4b.5.9b,10-Tetrahydro-8-methoxy-5-methylindeno[1,2-b]indole]
[1]
  pIC₅₀: 7.0

## COc1c(C)cc2c(c1C)C[C@@H]1c3ccccc3N[C@H]21 (relative stereo) [2-Methoxy-1,3-dimethyl-THII, cis-4b,5,9b,10-Tetrahydro-2-methoxy-1,3-dimethylindeno[1,2-b]indole]
[1]
  pIC₅₀: 7.2

## c1ccc2c(c1)C[C@H]1Nc3ccccc3[C@@H]21 (relative stereo) [iso-THII, cis-5,5a,6,10b-Tetrahydroindeno[2,1-b]indole]
[1]
  pIC₅₀: 6.9
Rat hepatocytes
  IC50: 2000 nM
Red blood cells
  RBC-PIV: 0.38 %/µM

## COc1ccc2c(c1)[C@@H]1c3ccccc3C[C@@H]1N2 (relative stereo) [9-Methoxy-iso-THII, cis-5,5a,6,10b-Tetrahydro-9-methoxyindeno[2,1-b]indole]
[1]
  pIC₅₀: 7.7

## COc1ccc2c(c1)[C@H]1Cc3c(cc(C)c(OC)c3C)[C@H]1N2 (relative stereo) [2,8-Dimethoxy-1,3,dimethyl-THII, cis-4b,5,9b,10-Tetrahydro-2,8-dimethoxy-1,3-dimethylindeno[1,2-b]indole]
[1]
  pIC₅₀: 8.1

## CCN(CC)c1ccc2c(c1)C1Cc3ccccc3C1N2CC (stereo not drawn) [8-Diethylamino-5-ethyl-THII, cis-4b,5,9b,10-Tetrahydro-5-ethyl-8-(N.N-diethylamino)-indeno[1,2-b]indole]
[1]
  pIC₅₀: 7.1

## Cc1ccc2c(c1)[C@H]1Cc3ccccc3[C@H]1N2 (relative stereo) [8-Methyl-THII, cis-4b,5,9b,10-Tetrahydro-8 methylindeno[1,2-b]indole]
[1]
  pIC₅₀: 7.1

## Cc1cc(C)c2c(c1)[C@H]1Cc3ccccc3[C@H]1N2 (relative stereo) [6,8-Dimethyl-THII, cis-4b,5,9b,10-Tetrahydro-6,8-dimethylindeno[1,2-b]indole]
[1]
  pIC₅₀: 7.3
